Consider twelve molecules from patent US10358454B2, “Marinopyrrole derivatives and methods of making and using same” (H. LEE MOFFITT CANCER CENTER AND RESEARCH INSTITUTE, INC., priority 2014, dated 2019).

Test [1] addresses Mcl-1/Bim (Homo sapiens, UniProt Q07820). Put plainly: Mcl-1/Bim ELISA (GST-Mcl-1 binding to biotinylated Bim BH3 peptide). To be noted: for selectivity profile Mcl-1 vs Bcl-xL in words: from Mcl-1/Bim and Bcl-xL/Bim ELISA; for fold loss of potency against Mcl-1/Bim: 1-15 and 1-13 vs 1-10, 1-14 vs 1-11, 1-16 vs 1-15, 1-12 vs 1-9, 1-22, 1-21, 1-20 vs 1-23, 1-37 and N-Me methoxy analogue vs (±)-1; for selectivity for Mcl-1 over Bcl-xL (Mcl-1/Bim over Bcl-xL/Bim): ratio of ELISA IC50 values; for fold more potent than (±)-1 (1) against Mcl-1/Bim: relative to (±)-1. As for the experimental part:
(§1) ELISAs were performed using a modified version of a previously described procedure (Doi K et al. J. Biol. Chem. 2012, 287, 10224-10235). Briefly, 40 nM of biotinylated Bim BH3 peptide (Biomatik) in SuperBlock blocking buffer (Pierce) was incubated in high-binding capacity streptavidin-coated plates (Pierce) for 2 h. Compounds were diluted in 120 μl of PBS containing 10 nM of GST-Mcl-1 or GST-Bcl-xL in 1.5 mL tubes for 15 min. Wells were washed with wash buffer (PBS containing 0.05% Tween-20) and then 100 μL of the compound/GST-protein mixture was transferred to the wells. The plates were incubated for 2 h, and then the wells were washed with wash buffer. HRP-conjugated anti-GST antibody (Bethyl Laboratories) was diluted 1:2000 in SuperBlock and 100 μL was transferred to each well. The plate was incubated for 1 h, and then the wells were washed with wash buffer followed by PBS. 100 μL of SureBlue TMB Microwell Peroxidase Substrate (VWR) was added to each well and plates were developed for 5-10 min. 100 μL of 1 N HCl was added to each well to stop the reaction and absorbance was read at 450 nm using a μQuant plate reader (Bio-Tek).
(§2) ELISAs were performed using a similar procedure as previously described (Doi K, et al. J. Biol. Chem. 2012, 287, 10224-10235). Briefly, 40 nM of biotinylated Bim BH3 peptide (Biomatik) in SuperBlock blocking buffer (Pierce) was incubated in high-binding capacity streptavidin-coated plates (Pierce) for 2 h. Compounds were diluted in 120 μl of PBS containing 10 nM of GST-Mcl-1 or GST-Bcl-xL in 1.5 mL tubes for 15 min. Wells were washed with wash buffer (PBS containing 0.05% Tween-20) and then 100 μL of the compound/GST-protein mixture was transferred to the wells. The plates were incubated for 2 h, and then wells were washed with wash buffer. HRP-conjugated anti-GST antibody (Bethyl Laboratories) was diluted 1:2000 in SuperBlock and 100 μL was transferred to each well. The plate was incubated for 1 h, and then wells were washed with wash buffer followed by PBS. 100 μL of SureBlue TMB Microwell Peroxidase Substrate (VWR) was added to each well and plates were developed for 5-10 min. 100 μL of 1 N HCl was added to each well to stop the reaction and absorbance was read at 450 nm using μQuant plate reader (Bio-Tek).
For orientation: ELISA stands for enzyme-linked immunosorbent assay.

In test [2] the target is Bcl-xL/Bim (Homo sapiens, UniProt Q07817). Kind of test: Bcl-xL/Bim ELISA (GST-Bcl-xL binding to biotinylated Bim BH3 peptide). To be noted: for fold more potent than (±)-1 (1) against Bcl-xL/Bim: relative to (±)-1. As for the experimental part:
as §1, §2

[3] abbreviates: Table 3-A structure I, Mcl-1 at 10 nM, n ≥ 3, read-out: Mcl-1-Bim IC50 (average ± SEM).
[4] abbreviates: read-out: IC50 to inhibit Bcl-xL/Bim binding.
Where [5] appears, read: Table 2-B, n ≥ 3, read-out: Mcl-1/Bim IC50 (average ± SEM).
The mark [6] stands for this setting: Table 3-A structure I, Bcl-xL at 10 nM, n ≥ 3, read-out: Bcl-xL-Bim IC50 (average ± SEM).
Setting [7] is: Table 2-B, n ≥ 3 unless specified, read-out: Bcl-xL/Bim IC50 (average ± SEM).
[8] abbreviates: Table 2-A, n ≥ 3, read-out: Mcl-1/Bim IC50 (average ± SEM).
The mark [9] stands for this setting: Table 3-B structure II, n ≥ 3, read-out: Mcl-1-Bim IC50 (average ± SEM).
[10] abbreviates: read-out: IC50 to inhibit the binding of Mcl-1 to Bim.
The mark [11] stands for this setting: Table 2-A, n ≥ 3, read-out: Bcl-xL/Bim IC50 (average ± SEM).
[12] abbreviates: Table 3-B structure II, n ≥ 3, read-out: Bcl-xL-Bim IC50 (average ± SEM).
[13] abbreviates: Table 1, Mcl-1 at 10 nM, n ≥ 3, read-out: Mcl-1-Bim IC50 (average ± SEM).
Setting [14] is: Table 1, Bcl-xL at 10 nM, n ≥ 3, read-out: Bcl-xL-Bim IC50 (average ± SEM).
The mark [15] stands for this setting: Table 3-C structure IV, n ≥ 3, read-out: Mcl-1-Bim IC50 (average ± SEM).
Setting [16] is: Table 3-C structure IV, n ≥ 3 (IV-1: n = 2), read-out: Bcl-xL-Bim IC50 (average ± SEM).

The structures appear in SMILES notation. “Also recorded” adds a separate entry of the source. Read-outs that look alike come from different tables or passages of the source.

Chain of Bcl-xL/Bim (Q07817 whole entry): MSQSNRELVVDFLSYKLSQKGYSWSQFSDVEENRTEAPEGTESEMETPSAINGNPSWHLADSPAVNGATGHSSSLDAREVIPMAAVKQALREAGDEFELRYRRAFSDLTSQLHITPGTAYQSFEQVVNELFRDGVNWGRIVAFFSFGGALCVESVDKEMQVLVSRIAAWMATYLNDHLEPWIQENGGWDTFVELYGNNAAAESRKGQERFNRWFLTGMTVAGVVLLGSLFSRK
Chain of Mcl-1/Bim (Q07820 whole entry): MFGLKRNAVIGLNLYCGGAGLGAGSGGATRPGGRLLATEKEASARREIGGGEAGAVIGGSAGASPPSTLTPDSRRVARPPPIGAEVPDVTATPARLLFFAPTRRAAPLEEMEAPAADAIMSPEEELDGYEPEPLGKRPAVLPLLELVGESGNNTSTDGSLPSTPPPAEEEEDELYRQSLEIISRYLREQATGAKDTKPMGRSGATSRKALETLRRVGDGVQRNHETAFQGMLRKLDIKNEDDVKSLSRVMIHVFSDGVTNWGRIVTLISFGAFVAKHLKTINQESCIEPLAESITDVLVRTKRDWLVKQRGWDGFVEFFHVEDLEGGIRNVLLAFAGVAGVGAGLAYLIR

For the molecule `O=C(c1ccc(SCc2ccccc2)cc1O)c1[nH]c(Cl)c(Cl)c1-n1c(C(=O)c2ccc(SCc3ccccc3)cc2O)cc(Cl)c1Cl` [Compound 1-10, (4,4′,5,5′-Tetrachloro-1′H-1,3′-bipyrrole-2,2′-diyl)bis(((2-hydroxy-4-benzylthio)phenyl)methanone)], the IC50 is 0.7 ± 0.2 µM in test [1] (setting [3]) and 0.6 µM in test [2] (setting [4]). For the same molecule, the “selectivity profile Mcl-1 vs Bcl-xL in words” value in test [1] was “most potent dual Mcl-1 and Bcl-xL antagonists”.
Consider `COc1ccc(CSc2ccc(C(=O)c3[nH]c(Cl)c(Cl)c3-n3c(C(=O)c4ccc(SCc5ccc(OC)cc5)cc4O)cc(Cl)c3Cl)c(O)c2)cc1` [Compound 1-11], for which the IC50 in test [1] (setting [5]) was 0.7 ± 0.1 µM; in test [2] (setting [6]), 0.6 ± 0.1 µM.
Regarding `CCOC(=O)CS(=O)(=O)c1ccc(C(=O)c2[nH]c(Cl)c(Cl)c2-n2c(C(=O)c3ccc(S(=O)(=O)CC(=O)OCC)cc3O)cc(Cl)c2Cl)c(O)c1` [Compound 1-12], the “fold loss of potency against Mcl-1/Bim” value in test [1] was found to be 21 fold. The IC50 in test [1] (setting [5]) was 37.3 ± 3.1 µM; in test [2] (setting [7]), > 50 µM.
With `O=C(c1ccc(S(=O)(=O)Cc2ccccc2)cc1O)c1[nH]c(Cl)c(Cl)c1-n1c(C(=O)c2ccc(S(=O)(=O)Cc3ccccc3)cc2O)cc(Cl)c1Cl` [Compound 1-13, (4,4′,5,5′-Tetrachloro-1′H-1,3′-bipyrrole-2,2′-diyl)bis(((2-hydroxy-4-benzylsulfonyl)phenyl)methanone)], the “fold loss of potency against Mcl-1/Bim” value in test [1] stood at 16 fold. Besides, the figures for the IC50 in test [1] (setting [5]), in test [1] (setting [3]) and in test [2] (setting [6]) were 11.2 ± 4 µM, 7.3 ± 1.4 µM and 69.3 ± 5.8 µM, respectively.
On to `O=C(O)CSc1ccc(C(=O)c2[nH]c(Cl)c(Cl)c2-n2c(C(=O)c3ccc(SCC(=O)O)cc3O)cc(Cl)c2Cl)c(O)c1` [Compound 1-15], for which, in test [1], the “fold loss of potency against Mcl-1/Bim” value is on record as 8.7 fold. Also, the IC50 in test [1] (setting [5]) is 6.1 ± 1.3 µM; in test [1] (setting [3]), 6.1 ± 1.3 µM; in test [1] (read-out: IC50 to disrupt Mcl-1/Bim binding), 6.1 µM; in test [2] (setting [7]), > 100 µM; in test [2] (setting [6]), > 100 µM; in test [2] (setting [4]), > 100 µM. The “selectivity profile Mcl-1 vs Bcl-xL in words” value in test [1] was “much more selective for Mcl-1 over Bcl-xL”. Besides, in test [1], the “selectivity for Mcl-1 over Bcl-xL (Mcl-1/Bim over Bcl-xL/Bim)” value (from here on “selectivity for Mcl-1 over Bcl-xL”) is given as “over 16 fold”.
With `CCOC(=O)Cn1cc(-c2cc(O)c(C(=O)c3[nH]c(Cl)c(Cl)c3-n3c(C(=O)c4cc(Cl)c(-c5cn(CC(=O)OCC)nn5)cc4O)cc(Cl)c3Cl)cc2Cl)nn1` [Compound 1-17, Diethyl 2,2′-(4,4′-((4,4′,5,5′-tetrachloro-1′H-1,3′-bipyrrole-2,2′-dicarbonyl)bis(2-chloro-5-hydroxy-4,1-phenylene))bis(1H-1,2,3-triazole-4,1-diyl))diacetate], the IC50 in test [1] (setting [8]) was 7.8 ± 1.5 µM; in test [1] (setting [9]), 7.8 ± 1.5 µM; in test [1] (setting [10]) it was 7.8 µM; in test [2] (setting [11]), > 100 µM; in test [2] (setting [12]), > 100 µM. In addition, the “selectivity for Mcl-1 over Bcl-xL” value in test [1] is on record as 12.9 fold. In addition, the “activity against Bcl-xL/Bim in words” value in test [2] was “not active”.
For `CCOC(=O)Cn1cc(-c2ccc(C(=O)c3[nH]c(Cl)c(Cl)c3-n3c(C(=O)c4ccc(-c5cn(CC(=O)OCC)nn5)cc4O)cc(Cl)c3Cl)c(O)c2)nn1` [Compound 1-24, Diethyl 2,2′-(4,4′-((4,4′,5,5′-tetrachloro-1′H-1,3′-bipyrrole-2,2′-dicarbonyl)bis(3-hydroxy-4,1-phenylene))bis(1H-1,2,3-triazole-4,1-diyl))diacetate], the IC50 in test [1] (setting [8]) was 18.4 ± 0.3 µM; in test [1] (setting [9]) it was 18.4 ± 0.3 µM; in test [1] (setting [10]) it was 18.4 µM; in test [2] (setting [11]), > 100 µM; in test [2] (setting [12]) it was > 100 µM. For the same molecule, in test [1], the “selectivity for Mcl-1 over Bcl-xL” value was found to be 5.4 fold. Moreover, the “activity against Bcl-xL/Bim in words” value in test [2] is reported as “not tolerated; also recorded: not active”.
As to `O=C(O)Cn1cc(-c2ccc(C(=O)c3[nH]c(Cl)c(Cl)c3-n3c(C(=O)c4ccc(-c5cn(CC(=O)O)nn5)cc4O)cc(Cl)c3Cl)c(O)c2)nn1` [Compound 1-26, 2,2′-(4,4′-((4,4′,5,5′-Tetrachloro-1′H-1,3′-bipyrrole-2,2′-dicarbonyl)bis(3-hydroxy-4,1-phenylene))bis(1H-1,2,3-triazole-4,1-diyl))diacetic acid], the IC50 is 16.5 ± 1.9 µM in test [1] (setting [8]); 16.5 ± 1.9 µM in test [1] (setting [9]); 16.5 µM in test [1] (setting [10]); > 50 µM in test [2] (setting [11]); > 50 µM in test [2] (setting [12]). Moreover, the “selectivity for Mcl-1 over Bcl-xL” value in test [1] is given as 3.0 fold. In addition, the “activity against Bcl-xL/Bim in words” value in test [2] was “not tolerated; also recorded: not active”.
As for `O=C1c2ccc(OS(=O)(=O)C(F)(F)F)cc2Oc2c(Cl)cc(C(=O)c3ccc(OS(=O)(=O)C(F)(F)F)cc3O)n2-c2c1[nH]c(Cl)c2Cl` [IV-1, 3-Hydroxy-4-(2,3,7-trichloro-13-oxo-10-(((trifluoromethyl)sulfonyl)oxy)-1,13 dihydrobenzo[g]di-pyrrolo[2,1-b:3′,2′-d][1,3]oxazocine-5-carbonyl)phenyl trifluoromethanesulfonate], the results for the IC50 in test [1] (setting [13]) and in test [2] (setting [14]) were 1.4 ± 0.3 µM and 2.3 ± 1.1 µM, respectively. The “fold more potent than (±)-1 (1) against Mcl-1/Bim” value in test [1] is “six”. The “fold more potent than (±)-1 (1) against Bcl-xL/Bim” value in test [2] was “seven-fold”.
Take `O=C1c2ccc(O)cc2Oc2c(Cl)cc(C(=O)c3ccc(O)cc3O)n2-c2c1[nH]c(Cl)c2Cl` [IV-2, 2,3,7-Trichloro-5-(2,4-dihydroxybenzoyl)-10-hydroxybenzo[g]dipyrrolo[2,1-b:3′,2′-d][1,3]oxazo-cin-13(1H)-one]: the IC50 in test [1] (setting [13]) was 42.5 ± 6 µM; in test [1] (setting [5]), 8 ± 1.6 µM; in test [1] (setting [15]) it was 8 ± 1.6 µM; in test [2] (setting [14]), > 100 µM; in test [2] (setting [7]) it was 9.5 ± 2.2 µM; in test [2] (setting [16]), 9.5 ± 2.2 µM. The “selectivity profile Mcl-1 vs Bcl-xL in words” value in test [1] was “dual Mcl-1 and BclxL antagonists”.
Take `COC(=O)c1ccc(C(=O)c2cc(Cl)c3n2-c2c([nH]c(Cl)c2Cl)C(=O)c2ccc(C(=O)OC)cc2O3)c(O)c1` [IV-3, Methyl-2,3,7-trichloro-5-(2-hydroxy-4-(methoxycarbonyl)benzoyl)-13-oxo-1,13-dihydrobenzo[g]-dipyrrolo[2,1-b:3′,2′-d][1,3]oxazocine-10-carboxylate]: the IC50 in test [1] (setting [13]) is 4.3 ± 1.5 µM; in test [1] (setting [5]), 4.1 ± 1.4 µM; in test [1] (setting [15]), 4.1 ± 1.4 µM; in test [2] (setting [14]), 3.4 ± 0.9 µM; in test [2] (setting [7]), 10.1 ± 2.2 µM; in test [2] (setting [16]) it was 10.1 ± 2.2 µM. Also, in test [1], the “fold more potent than (±)-1 (1) against Mcl-1/Bim” value was “two-fold”. Further, in test [2], the “activity against Bcl-xL/Bim in words” value is “slight increase in potency”. Besides, the “fold more potent than (±)-1 (1) against Bcl-xL/Bim” value in test [2] was “seven-fold”.
For `O=C(O)c1ccc(C(=O)c2cc(Cl)c3n2-c2c([nH]c(Cl)c2Cl)C(=O)c2ccc(C(=O)O)cc2O3)c(O)c1` [IV-4, 5-(4-Carboxy-2-hydroxybenzoyl)-2,3,7-trichloro-13-oxo-1,13-dihydrobenzo[g]dipyrrolo[2,1-b:3′,2′-d][1,3]oxazocine-10-carboxylic acid], the IC50 in test [1] (setting [13]) is 66.6 ± 2.6 µM; in test [1] (setting [5]), 3.9 ± 1.1 µM; in test [1] (setting [15]), 3.9 ± 1.1 µM; in test [2] (setting [14]) it was > 100 µM; in test [2] (setting [7]), 18.3 ± 3 µM; in test [2] (setting [16]) it was 18.3 ± 3 µM.
